From paper PMC5684143, “New melanocortin-like peptide of E. coli can suppress inflammation via the mammalian melanocortin-1 receptor (MC1R): possible endocrine-like function for microbes of the gut” (NPJ Biofilms and Microbiomes, 2017)

Columns and labels:
RAW 264.7 cells = experiment: HMGB1-induced TNF release by RAW 264.7 macrophage-like cells; format: cell-based, murine
Description: Fig. 1 MECO-1 attenuates HMGB1-induced TNF release by macrophages in culture. Murine macrophage-like RAW 264.7 cells were incubated for up to 24 h with purified recombinant HMGB1 (0.1 mg/ml) in the absence or presence of MECO-1 (Panel a), or alpha-MSH (Panel b), at 10^−10 and 10^−12 M. The levels of TNF in the culture medium were determined by ELISA and expressed as mean ± SEM of two independent experiments (in duplicate). *p < 0.05, **p < 0.01 vs. control (“HMGB1 alone”). […] In panels c and d, cells were incubated with HMGB1 for 6 h with or without MECO-1 or alpha-MSH (10^−16–10^−6 M). Data represent mean ± SEM of three independent experiments performed in duplicate. With 10^−14 M peptide, results were significant at *p < 0.05, and at 10^−12 M or more were typically **p < 0.01. In our experiments, at concentrations of MECO-1, alpha-MSH, and ACTH of around 1 nM and higher, dose response curves often reverse direction, i.e., turn upward. The reversal is more clearly seen in Fig. 2. The mechanism of the reversal is not known. (Desensitization, receptor inactivation, receptor internalization, and dissociation of dimeric receptors are all plausible candidates.) As a result, the shape of the lower part of the curve and the actual inflection point may vary from experiment to experiment. This feature may be missed when results of several experiments are combined
Murine macrophage-like RAW 264.7 cells were obtained from American Type Culture Collection, and were grown in Dulbecco’s Modified Eagle’s Medium (DMEM, Life Technologies) containing 10% (vol/vol) heat-inactivated fetal bovine serum (FBS, Hyclone Lab. Inc.), penicillin 100 U/ml, and streptomycin 100 μg/ml (BioWhittaker Inc.). Cells were suspended in medium and incubated in 24-well or 48-well tissue-culture plates overnight in a humidified incubator (37 °C, 5% CO2). Growth medium was removed and replaced by Opti-MEM I serum-free medium (Life Technologies) overnight. In the experiments, cell monolayers were stimulated with HMGB1 or LPS, in the absence or presence of MECO-1 or alpha-MSH; cell-free supernatants were assayed for TNF by ELISA or HMGB1 by western blotting.
Concentrations of TNF and IL-6 were each determined using a commercially available enzyme-linked immunosorbent assay (ELISA) kit (R&D System Inc.) as previously described.[34] The levels of TNF or IL-6 were calculated with reference to standard curves.
Fig. 3 Antibody to MC1R blocks suppressant effect of MECO-1 and alpha-MSH. Murine macrophage-like RAW 264.7 cells were pretreated with specific antibodies (“anti-MC1R Ab”) against melanocortin-1 receptor (MC1R) for 10 min prior to addition of HMGB1 in the absence or presence of MECO-1 or alpha-MSH at 10^−12 M. At 6 h, the TNF content of the cell-free medium was determined by ELISA, and expressed as mean ± SEM of two independent experiments performed in duplicate. ACTH at the same concentration gave results that were indistinguishable from those of alpha-MSH and MECO-1 (data not shown)

Balb/C mice = experiment: Lethal LPS endotoxin sepsis in mice, survival; format: in vivo; conditions: two experiments pooled; peptide i.p. twice daily for 3 days; saline 0 of 19; alpha-MSH 5 of 20, MECO-1 15 of 30
Description: Kaplan–Meier analysis was used to determine statistical significance of the differences in survival of mice. p ≦ 0.05 was considered significant. Values in the figures were expressed as mean(±)S.E.M. of two or three independent experiments, where each experimental point was derived from duplicates or triplicates. Student’s two-tailed t-test was used to compare the means between groups. p-value of 0.05 or less was considered statistically significant. The design (including sample size) of experiments in Figs. 2–7, and Table 1 followed closely the design of previous experiments by us and others. The results of prior experiments in our laboratory (both in vitro experiments and animal experiments) were used to decide sample size for each of the experiments shown.[37]–[41]
Fig. 6 MECO-1 rescues mice from lethal sepsis. a Endotoxin. Balb/C mice (males) were injected once intraperitoneally with LPS at a dose estimated to be an LD75. Immediately thereafter, the first doses of MECO-1 at 0.5 mg/kg (low dose), MECO-1 at 5 mg/kg (high dose), alpha-MSH at 5 mg/kg (high dose) or saline alone were administered intraperitoneally. Peptide or saline were given twice daily for 3 days for a total of six doses. Ten mice were in each group. Survival was monitored daily for 2 weeks. […] Animals were monitored for survival for 14 days. […]

NF-kappa B = experiment: NF-kappa-B activity (electrophoretic mobility shift assay) in LPS-treated RAW 264.7 cells; format: cell-based, murine; conditions: LPS 100 ng/ml; peptide 10^-8 M and 10^-6 M; 2 hours; EMSA; two separate experiments
Description: Nuclear extracts were prepared from 1 × 10^6 treated cells using the NE-PER nuclear extraction reagents (Pierce). DNA was biotin labeled using the biotin 3ʹ-end-labeling kit (Pierce) in a 50-µl reaction buffer and 5 pmol of double-stranded NF-kappa-B oligonucleotide (5ʹ-[…]-3ʹ and 3ʹ-[…]-5ʹ, Promega). Electrophoretic mobility shift assays for NF-κB was performed using the Lightshift Chemiluminescent Electrophoretic Mobility Shift Assay kit (Pierce) following the manufacturer’s protocol. Densitometric values for the active transcription factors were obtained using GS-800 Calibrated Densitometer Software (Biorad).[36]
RAW 264.7 cells ([…]) were incubated with LPS (100 ng/ml) with or without MECO-1 or alpha-MSH at 10^-8 M and 10^-6 M for 2 hours. Nuclear extracts were mixed with biotin-labeled oligonucleotides containing binding sites for NF-kappa B and then run on a gel, 4-20% Ready gel TBE, in an electrophoretic mobility shift assay. Data represent mean +/- SEM of two separate experiments.

## alpha-melanocyte-stimulating hormone [alpha-MSH]
RAW 264.7 cells; 6 h incubation, dose range 10^−16–10^−6 M, three independent experiments in duplicate, p < 0.05
  peptide concentration at which significant effects on HMGB1-induced TNF release were noted: 10^−14 M
RAW 264.7 cells; Fig. 2d dose response, RAW 264.7 cells
  inhibition of HMGB-1-induced TNF release: up to 80%
RAW 264.7 cells; peptide 10^−12–10^−8 M
  TNF accumulation with HMGB1 on co-incubation with peptide: substantially reduced
RAW 264.7 cells; peptide at 1 pM and 100 pM, 4 to 16 h after HMGB-1, HMGB1 0.1 mg/ml, ELISA, two independent experiments in duplicate
  HMGB-1-stimulated TNF-alpha release: blunted substantially
Balb/C mice
  mice rescued from lethal dose of LPS endotoxin: 25%
NF-kappa B
  rise in NF-kB activity: active in attenuating
